Test results from the NIST ThermoML archive (doi:10.1016/j.jct.2015.12.028).
± gives the expanded uncertainty stated by the source.

Conditions: Liquid, light scattering

CCCCCCCC(=O)OCC [ethyl octanoate]
Conditions	speed of sound [m/s]
293.25 K, 100 kPa	1281 ± 13
293.65 K, 1000 kPa	1284 ± 13
293.67 K, 2510 kPa	1290.6 ± 13
293.69 K, 4020 kPa	1296.8 ± 13
293.72 K, 5520 kPa	1301 ± 13
293.75 K, 6980 kPa	1307.1 ± 13
293.77 K, 8490 kPa	1313.5 ± 13
293.77 K, 10010 kPa	1325.8 ± 13
303.05 K, 100 kPa	1245.9 ± 12
303.08 K, 8480 kPa	1288.6 ± 13
303.13 K, 7040 kPa	1280.7 ± 13
303.14 K, 3980 kPa	1263.7 ± 13
303.15 K, 1030 kPa	1249.1 ± 13
303.15 K, 2510 kPa	1257.8 ± 13
303.15 K, 5520 kPa	1273.7 ± 13
303.18 K, 10000 kPa	1295.5 ± 13
313.07 K, 100 kPa	1211 ± 12
313.15 K, 1000 kPa	1214.2 ± 12
313.28 K, 9990 kPa	1263.2 ± 13
313.38 K, 8530 kPa	1257.4 ± 13
313.39 K, 5500 kPa	1240.3 ± 12
313.4 K, 2510 kPa	1223.2 ± 12
313.4 K, 4060 kPa	1230.6 ± 12
313.41 K, 6980 kPa	1249.6 ± 13
322.88 K, 100 kPa	1176.3 ± 12
323.19 K, 8540 kPa	1227.3 ± 12
323.29 K, 10100 kPa	1231.2 ± 12
323.33 K, 1200 kPa	1185.7 ± 12
323.35 K, 2490 kPa	1190.8 ± 12
323.35 K, 3970 kPa	1197.8 ± 12
323.35 K, 5510 kPa	1205.3 ± 12
323.35 K, 7060 kPa	1215 ± 12
332.39 K, 9980 kPa	1202.3 ± 12
332.49 K, 8520 kPa	1194.3 ± 12
332.64 K, 7040 kPa	1183.5 ± 12
332.65 K, 5510 kPa	1175.2 ± 12
332.67 K, 2480 kPa	1158.3 ± 12
332.67 K, 4030 kPa	1167.5 ± 12
332.68 K, 980 kPa	1149.1 ± 12
333 K, 100 kPa	1141.8 ± 11
342.6 K, 890 kPa	1113.2 ± 11
342.61 K, 4000 kPa	1133.9 ± 11
342.64 K, 2530 kPa	1124.1 ± 11
342.71 K, 5490 kPa	1142.7 ± 11
342.74 K, 8510 kPa	1163.8 ± 12
342.77 K, 6990 kPa	1152.8 ± 12
342.94 K, 9970 kPa	1168.8 ± 12
343.12 K, 100 kPa	1107.4 ± 11
352.36 K, 100 kPa	1073.3 ± 11
353.44 K, 10120 kPa	1135.6 ± 11
353.54 K, 2480 kPa	1088 ± 11
353.54 K, 6990 kPa	1116 ± 11
353.54 K, 8520 kPa	1129.3 ± 11
353.56 K, 1030 kPa	1080.3 ± 11
353.58 K, 5480 kPa	1103.2 ± 11
353.6 K, 4000 kPa	1096.3 ± 11
363.16 K, 8500 kPa	1095.2 ± 11
363.19 K, 100 kPa	1039.3 ± 10
363.19 K, 1070 kPa	1047.2 ± 11
363.19 K, 7030 kPa	1083.1 ± 11
363.21 K, 2520 kPa	1053.8 ± 11
363.21 K, 4080 kPa	1062 ± 11
363.21 K, 5520 kPa	1071.3 ± 11
363.26 K, 10030 kPa	1104.7 ± 11
372.7 K, 2510 kPa	1022.9 ± 10
372.73 K, 3980 kPa	1033.3 ± 10
372.75 K, 8570 kPa	1067.6 ± 11
372.79 K, 100 kPa	1005.6 ± 10
372.79 K, 1040 kPa	1013.2 ± 10
372.82 K, 5530 kPa	1046.7 ± 11
372.82 K, 6960 kPa	1055.2 ± 11
372.95 K, 10040 kPa	1074.2 ± 11
382.73 K, 7000 kPa	1020.4 ± 10
382.8 K, 5550 kPa	1012.8 ± 10
382.82 K, 4060 kPa	998.99 ± 10
382.9 K, 2540 kPa	988.47 ± 9.9

Conditions	speed of sound [m/s]
293.73 K	1275.7 ± 13
302.98 K	1243 ± 12
313.53 K	1206.1 ± 12
323.27 K	1173.1 ± 12
332.65 K	1138.5 ± 11
343.2 K	1103.8 ± 11
352.53 K	1069.9 ± 11
363.28 K	1035.2 ± 10
372.96 K	1001.9 ± 10
